Results as given in PubChem BioAssay AID1963844 (Molecular Pharmacology Branch, DTP, NCI, 2024).

System: 422866-222-R5-J1-PDC complex spheroid viability
Experiment: Anticancer human tumor 422866-222-R5-J1-PDC patient-derived pancreatic adenocarcinoma cell line growth inhibition [POLQ]
Details: for IC50: curve of first compound; for viability, T/C: stronger effect = lower value
Outline: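 Patient-derived tumour cells were co-cultured with HUVEC and mesenchymal stem cells as multicellular spheroids at 37 °C. They were treated with POLQ inhibitors (novobiocin, ART-558, RP6685) alone or combined with other agents. Top concentrations were at or near clinical Cmax (otherwise 10 microM; SN-38 at 1 microM), decreasing in half-log steps.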

[1] = second compound 0.0316 µM, first compound 0.0316 µM
[2] = second compound 0.0316 µM, first compound 0.1 µM
[3] = second compound 0.0316 µM, first compound 0.316 µM
[4] = second compound 0.0316 µM, first compound 1 µM
[5] = second compound 0.1 µM, first compound 0.0316 µM
[6] = second compound 0.1 µM, first compound 0.1 µM
[7] = second compound 0.1 µM, first compound 0.316 µM
[8] = second compound 0.1 µM, first compound 1 µM
[9] = second compound 0.316 µM, first compound 0.0316 µM
[10] = second compound 0.316 µM, first compound 0.1 µM
[11] = second compound 0.316 µM, first compound 0.316 µM
[12] = second compound 0.316 µM, first compound 1 µM
[13] = second compound 1 µM, first compound 0.0316 µM
[14] = second compound 1 µM, first compound 0.1 µM
[15] = second compound 1 µM, first compound 0.316 µM
[16] = second compound 1 µM, first compound 1 µM
[17] = second compound 3.16 µM, first compound 0.0316 µM
[18] = second compound 3.16 µM, first compound 0.1 µM
[19] = second compound 3.16 µM, first compound 0.316 µM
[20] = second compound 3.16 µM, first compound 1 µM
[21] = second compound 10 µM, first compound 0.0316 µM
[22] = second compound 10 µM, first compound 0.1 µM
[23] = second compound 10 µM, first compound 0.316 µM
[24] = second compound 10 µM, first compound 1 µM
[25] = second compound 0.0316 µM, first compound 3.16 µM
[26] = second compound 0.0316 µM, first compound 10 µM
[27] = second compound 0.1 µM, first compound 3.16 µM
[28] = second compound 0.1 µM, first compound 10 µM
[29] = second compound 0.316 µM, first compound 3.16 µM
[30] = second compound 0.316 µM, first compound 10 µM
[31] = second compound 1 µM, first compound 3.16 µM
[32] = second compound 1 µM, first compound 10 µM
[33] = second compound 3.16 µM, first compound 3.16 µM
[34] = second compound 3.16 µM, first compound 10 µM
[35] = second compound 10 µM, first compound 3.16 µM
[36] = second compound 10 µM, first compound 10 µM
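Further: spheroids exposed to compounds for one week before readout.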
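Wherever viability, T/C is given: percent of DMSO vehicle wells luminescence so 100% = untreated viability.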

C=CCn1c(=O)c2cnc(Nc3ccc(N4CCN(C)CC4)cc3)nc2n1-c1cccc(C(C)(C)O)n1 + COC1C(OC(N)=O)C(O)C(Oc2ccc3c(O)c(NC(=O)c4ccc(O)c(CC=C(C)C)c4)c(=O)oc3c2C)OC1(C)C was tested, and the IC50 (second compound 0.0316 µM) was 0.418 µM, the IC50 (second compound 0.1 µM) was 0.304 µM and the IC50 (second compound 0.316 µM) was 0.493 µM. It also gave an IC50 (second compound 1 µM) of 0.471 µM, an IC50 (second compound 3.16 µM) of 0.538 µM and an IC50 (second compound 10 µM) of 0.356 µM. For the same compound, the viability, T/C (second compound 0.0316 µM, first compound 0.00316 µM) was 91.1%, the viability, T/C (second compound 0.0316 µM, first compound 0.01 µM) was 106% and the viability, T/C [1] was 96.3%. The viability, T/C [2] was 93.2%, the viability, T/C [3] was 54.3% and the viability, T/C [4] was 36.6%. The viability, T/C (second compound 0.1 µM, first compound 0.00316 µM) was 98.8%, the viability, T/C (second compound 0.1 µM, first compound 0.01 µM) was 105% and the viability, T/C [5] was 86.2%. For the same compound, the viability, T/C [6] was 79.4%, the viability, T/C [7] was 46.5% and the viability, T/C [8] was 34.5%. The viability, T/C (second compound 0.316 µM, first compound 0.00316 µM) was 97.4%, the viability, T/C (second compound 0.316 µM, first compound 0.01 µM) was 101% and the viability, T/C [9] was 103%. For the same compound, the viability, T/C [10] was 84.4%, the viability, T/C [11] was 59.1% and the viability, T/C [12] was 36.6%. It also gave a viability, T/C (second compound 1 µM, first compound 0.00316 µM) of 94.8%, a viability, T/C (second compound 1 µM, first compound 0.01 µM) of 105% and a viability, T/C [13] of 93.8%. It also gave a viability, T/C [14] of 89.5%, a viability, T/C [15] of 58% and a viability, T/C [16] of 34.6%. It also gave a viability, T/C (second compound 3.16 µM, first compound 0.00316 µM) of 96.7%, a viability, T/C (second compound 3.16 µM, first compound 0.01 µM) of 100% and a viability, T/C [17] of 91.5%. It also gave a viability, T/C [18] of 79%, a viability, T/C [19] of 59.1% and a viability, T/C [20] of 39.7%. The viability, T/C (second compound 10 µM, first compound 0.00316 µM) was 95.7%, the viability, T/C (second compound 10 µM, first compound 0.01 µM) was 84.3% and the viability, T/C [21] was 98.2%. For the same compound, the viability, T/C [22] was 79.9%, the viability, T/C [23] was 51.9% and the viability, T/C [24] was 38.9%.
Work on CC1COCCN1c1cc(C2(S(C)(=N)=O)CC2)nc(-c2ccnc3[nH]ccc23)n1 (stereo not drawn) + COC1C(OC(N)=O)C(O)C(Oc2ccc3c(O)c(NC(=O)c4ccc(O)c(CC=C(C)C)c4)c(=O)oc3c2C)OC1(C)C yielded an IC50 (second compound 0.0316 µM) of 2.67 µM, an IC50 (second compound 0.1 µM) of 2.91 µM and an IC50 (second compound 0.316 µM) of 2.83 µM. For the same compound, the IC50 (second compound 1 µM) was 2.94 µM, the IC50 (second compound 3.16 µM) was 2.56 µM and the IC50 (second compound 10 µM) was 4.12 µM. For the same compound, the viability, T/C [1] was 102%, the viability, T/C [2] was 111% and the viability, T/C [3] was 88.4%. It also gave a viability, T/C [4] of 75.6%, a viability, T/C [25] of 43.9% and a viability, T/C [26] of 34.1%. It also gave a viability, T/C [5] of 104%, a viability, T/C [6] of 103% and a viability, T/C [7] of 91.6%. It also gave a viability, T/C [8] of 75.4%, a viability, T/C [27] of 46.6% and a viability, T/C [28] of 34.8%. For the same compound, the viability, T/C [9] was 95.8%, the viability, T/C [10] was 91% and the viability, T/C [11] was 92.5%. It also gave a viability, T/C [12] of 71.8%, a viability, T/C [29] of 48% and a viability, T/C [30] of 44.1%. It also gave a viability, T/C [13] of 91.3%, a viability, T/C [14] of 97.7% and a viability, T/C [15] of 101%. For the same compound, the viability, T/C [16] was 69.4%, the viability, T/C [31] was 54.9% and the viability, T/C [32] was 39.8%. For the same compound, the viability, T/C [17] was 107%, the viability, T/C [18] was 99% and the viability, T/C [19] was 104%. The viability, T/C [20] was 77.7%, the viability, T/C [33] was 44.4% and the viability, T/C [34] was 39.8%. For the same compound, the viability, T/C [21] was 97.1%, the viability, T/C [22] was 99.5% and the viability, T/C [23] was 112%. For the same compound, the viability, T/C [24] was 75.5%, the viability, T/C [35] was 58.7% and the viability, T/C [36] was 33%.
For COc1cc(C2c3cc4c(cc3C(OC3OC5COC(C)OC5C(O)C3O)C3COC(=O)C23)OCO4)cc(OC)c1O (stereo not drawn) + Nc1ccc(C#CCN(C(=O)Cc2ncc(C(F)(F)F)cc2C(F)(F)F)c2ccc(F)cc2)nn1, the IC50 (second compound 0.0316 µM) was 0.779 µM, the IC50 (second compound 0.1 µM) was 0.906 µM and the IC50 (second compound 0.316 µM) was 0.555 µM. It also gave an IC50 (second compound 1 µM) of 0.64 µM, an IC50 (second compound 3.16 µM) of 0.367 µM and an IC50 (second compound 10 µM) of 0.534 µM. It also gave a viability, T/C [1] of 90.9%, a viability, T/C [2] of 97.1% and a viability, T/C [3] of 62.7%. For the same compound, the viability, T/C [4] was 49.6%, the viability, T/C [25] was 33.5% and the viability, T/C [26] was 30.6%. For the same compound, the viability, T/C [5] was 110%, the viability, T/C [6] was 90.1% and the viability, T/C [7] was 76.2%. For the same compound, the viability, T/C [8] was 46.4%, the viability, T/C [27] was 31.2% and the viability, T/C [28] was 28.8%. It also gave a viability, T/C [9] of 123%, a viability, T/C [10] of 92.1% and a viability, T/C [11] of 55.5%. For the same compound, the viability, T/C [12] was 47.1%, the viability, T/C [29] was 29.2% and the viability, T/C [30] was 36.9%. It also gave a viability, T/C [13] of 94.3%, a viability, T/C [14] of 100% and a viability, T/C [15] of 68.5%. It also gave a viability, T/C [16] of 40.6%, a viability, T/C [31] of 32.1% and a viability, T/C [32] of 35.5%. The viability, T/C [17] was 93.3%, the viability, T/C [18] was 81.4% and the viability, T/C [19] was 48.2%. The viability, T/C [20] was 47.1%, the viability, T/C [33] was 37.6% and the viability, T/C [34] was 31.6%. It also gave a viability, T/C [21] of 103%, a viability, T/C [22] of 88.9% and a viability, T/C [23] of 55.4%. The viability, T/C [24] was 43.6%, the viability, T/C [35] was 38.4% and the viability, T/C [36] was 31.6%.
Nc1ccn(C2OC(CO)C(O)C2(F)F)c(=O)n1 (stereo not drawn) + COC1C(OC(N)=O)C(O)C(Oc2ccc3c(O)c(NC(=O)c4ccc(O)c(CC=C(C)C)c4)c(=O)oc3c2C)OC1(C)C gave an IC50 (second compound 0.0316 µM) of 0.11 µM, an IC50 (second compound 0.1 µM) of 0.094 µM and an IC50 (second compound 0.316 µM) of 0.105 µM. The IC50 (second compound 1 µM) was 0.0746 µM, the IC50 (second compound 3.16 µM) was 0.139 µM and the IC50 (second compound 10 µM) was 0.0674 µM. For the same compound, the viability, T/C [1] was 73.5%, the viability, T/C [2] was 49.9% and the viability, T/C [3] was 40.9%. For the same compound, the viability, T/C [4] was 33.1%, the viability, T/C [25] was 28% and the viability, T/C [26] was 32%. It also gave a viability, T/C [5] of 75.6%, a viability, T/C [6] of 47.7% and a viability, T/C [7] of 40.9%. It also gave a viability, T/C [8] of 33.7%, a viability, T/C [27] of 32.6% and a viability, T/C [28] of 36.2%. For the same compound, the viability, T/C [9] was 74%, the viability, T/C [10] was 48.2% and the viability, T/C [11] was 42.5%. For the same compound, the viability, T/C [12] was 36.1%, the viability, T/C [29] was 31.7% and the viability, T/C [30] was 33.4%. It also gave a viability, T/C [13] of 67.3%, a viability, T/C [14] of 43.1% and a viability, T/C [15] of 41%. For the same compound, the viability, T/C [16] was 36.1%, the viability, T/C [31] was 38.4% and the viability, T/C [32] was 34.3%. For the same compound, the viability, T/C [17] was 61.5%, the viability, T/C [18] was 54.5% and the viability, T/C [19] was 38.8%. For the same compound, the viability, T/C [20] was 37.2%, the viability, T/C [33] was 34.5% and the viability, T/C [34] was 38.6%. The viability, T/C [21] was 62.7%, the viability, T/C [22] was 43.7% and the viability, T/C [23] was 37.5%. The viability, T/C [24] was 35.7%, the viability, T/C [35] was 39% and the viability, T/C [36] was 35.4%.
